Our source for the IC50 values is PubChem BioAssay AID1645862 (Buhrlage Lab, Dana-Farber Cancer Institute and Novartis …, 2021).

Activity calls are given as the source filed them. No rule for the calls is given here. A value given as a limit tells only on which side of the number the result lay.

For this assay, the target named is Ubiquitin carboxyl-terminal hydrolase 8 (Homo sapiens) (UniProt P40818). The experiment in a line: Ubiquitin-specific protease 8 inhibitors, concentration-effect, biochemical, validation of initial actives (AID 1645862).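 Also: potency reflects inhibition of USP8 cleavage of a ubiquitin rhodamine substrate.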 Conditions: recombinant USP8 deubiquitinase activity assay.
Sequence of Ubiquitin carboxyl-terminal hydrolase 8 (Homo sapiens) (P40818 whole entry, looked up): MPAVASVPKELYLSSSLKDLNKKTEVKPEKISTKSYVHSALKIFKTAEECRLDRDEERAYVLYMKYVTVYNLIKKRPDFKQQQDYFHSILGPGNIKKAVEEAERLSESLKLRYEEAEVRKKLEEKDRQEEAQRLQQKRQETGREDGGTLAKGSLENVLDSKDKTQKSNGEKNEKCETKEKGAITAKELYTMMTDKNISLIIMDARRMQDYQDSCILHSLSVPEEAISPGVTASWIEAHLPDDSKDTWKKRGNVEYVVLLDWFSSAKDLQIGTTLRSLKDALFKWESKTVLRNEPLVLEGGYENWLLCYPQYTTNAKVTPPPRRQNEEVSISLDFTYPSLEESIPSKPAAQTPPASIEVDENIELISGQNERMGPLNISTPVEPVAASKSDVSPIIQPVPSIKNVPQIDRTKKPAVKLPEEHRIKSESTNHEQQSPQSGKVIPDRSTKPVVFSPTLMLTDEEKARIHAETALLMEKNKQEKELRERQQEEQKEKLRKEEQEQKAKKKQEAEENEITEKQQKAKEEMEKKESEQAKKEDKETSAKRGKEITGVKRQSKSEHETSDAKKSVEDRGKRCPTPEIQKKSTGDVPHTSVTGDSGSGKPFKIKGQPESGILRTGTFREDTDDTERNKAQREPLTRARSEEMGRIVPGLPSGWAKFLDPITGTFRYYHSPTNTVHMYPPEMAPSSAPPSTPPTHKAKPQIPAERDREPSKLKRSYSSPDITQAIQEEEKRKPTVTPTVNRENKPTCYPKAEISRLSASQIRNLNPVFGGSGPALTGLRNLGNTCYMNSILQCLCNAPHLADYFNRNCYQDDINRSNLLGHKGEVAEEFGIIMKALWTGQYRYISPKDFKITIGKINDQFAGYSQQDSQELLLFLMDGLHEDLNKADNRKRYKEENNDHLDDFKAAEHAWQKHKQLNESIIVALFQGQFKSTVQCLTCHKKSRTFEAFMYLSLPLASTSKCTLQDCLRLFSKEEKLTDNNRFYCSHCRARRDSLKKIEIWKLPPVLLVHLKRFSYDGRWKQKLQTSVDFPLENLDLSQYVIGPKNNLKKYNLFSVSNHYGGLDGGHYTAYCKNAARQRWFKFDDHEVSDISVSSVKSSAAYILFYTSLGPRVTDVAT

For orientation: IC50 means the concentration needed to halve the response being measured. As to `CC(C)CC(=O)Nc1cc(F)c2nc(N3CCOCC3)ccc2c1`, the IC50 is > 40 µM (inactive).
For `Cc1ccc(Cl)cc1NC(=O)c1cc(-c2ccccn2)n[nH]1`, the IC50 is > 40 µM (inactive).
Take `O=C(CSc1nnc2n(-c3ccccc3)c(=O)c3ccccc3n12)c1ccc(F)cc1`: the IC50 is > 40 µM (inactive).
To `COc1ccc(CCNC(=O)Cn2c(=O)n(-c3ccc(CC(=O)NCCc4ccccc4)cc3)c(=O)c3ccccc32)cc1OC` belongs > 40 µM (inactive); to `O=C(Nc1c2c(nn1-c1ccc([N+](=O)[O-])cc1)CSC2)c1c(F)cccc1F`, > 40 µM (inactive).
Under `CCc1[nH]c(=O)cc2cc(OC)c(OC)cc12` stands 0.722 µM; under `CCC(C)N1CNc2c(c(=O)[nH]c(=O)n2Cc2ccco2)C1` (stereo not given), > 40 µM (inactive).
To `COc1ccccc1CNC(=O)C1c2ccccc2C(=O)N1Cc1ccccc1C` (stereo not given) belongs > 40 µM (inactive); to `CC[C@@H](C(=O)[C@@H](C)[C@@H](O)[C@H](C)CCc1ccc(C)c(O)c1C(=O)O)[C@@H]1O[C@](CC)([C@H]2CC[C@](O)(CC)[C@H](C)O2)C[C@@H]1C`, > 40 µM (inactive); to `N#Cc1ccccc1Cn1c(=O)n(CCCC(=O)NCc2ccc(F)cc2)c(=O)c2ccccc21`, > 40 µM (inactive).
With `Cc1cccc(NC(=O)Nc2ccc(C)n(CC(=O)Nc3ccc(C)c(C)c3)c2=O)c1`, the IC50 is > 40 µM (inactive).
To `CN1C(=O)COc2cc(-c3noc(C(=O)NCc4ccc(F)cc4)n3)ccc21` belongs > 40 µM (inactive); to `COc1ccc(NC(=O)CC(=O)c2ccc([N+](=O)[O-])cc2)cc1S(=O)(=O)Nc1ccc(Cl)cc1`, > 40 µM (inactive).
To `Cc1ccc(-c2nc3c(c(SCC(=O)c4ccccc4)n2)COC(C)(C)C3)cc1` belongs > 40 µM (inactive); to `CCOc1ccc(NC(=O)Cn2c(-c3ccccc3)cc(C(C)=O)c2C)cc1`, > 40 µM (inactive); to `Cc1ccc(NC(=O)Nc2ccc(C)n(CC(=O)Nc3cccc(C)c3)c2=O)cc1`, > 40 µM (inactive).
Under `COc1ccccc1NC(=O)c1nc(-c2cn(-c3cccc(F)c3)nn2)no1` stands > 40 µM (inactive); under `O=C(CSc1ccc(-c2ccccc2)nn1)Nc1ccc(F)c([N+](=O)[O-])c1`, > 40 µM (inactive).
As for `Nc1c(C(=O)NCc2ccc3c(c2)OCO3)nnn1Cc1ccc(Br)cc1F`, the IC50 is > 40 µM (inactive).
To `Cn1nc(Cl)c(Cl)c1Oc1ccc(S(=O)(=O)Nc2ccc(Oc3ccc(C(F)(F)F)cn3)c(Cl)c2)cc1` belongs > 40 µM (inactive); to `CCOCc1ccc(C(=O)N[C@H](C)c2nc3cc(-c4ccc(OC)cc4)ncn3n2)cc1`, > 40 µM (inactive); to `COc1ccc(CNC(=O)Nc2cccc3ccccc23)cc1`, > 40 µM (inactive).
Take `COc1ccc(NC(=O)Nc2ccc(F)c(-c3nnc(-c4ccccc4)o3)c2)c(OC)c1`: the IC50 is > 40 µM (inactive).
Under `CCc1ccc([C@@H]2c3c(C)nn(C)c3NC(=O)[C@H]2NC(=O)c2ccc(OC)c(OC)c2)cc1` stands > 40 µM (inactive).
Under `COc1ccc(CCN2COc3c(cc(Cl)c4cccnc34)C2)cc1OC` stands > 40 µM (inactive); under `Cc1noc(-c2cc(=O)n(CC(=O)NCc3ccccc3F)c3ccccc23)n1`, > 40 µM (inactive); under `O=C(c1ccc(Cl)cc1)N(c1ccccn1)C1CCCCC1`, > 40 µM (inactive).
To `CC1(C)Cc2c(c(-c3ccco3)nc3sc4c(SCCCc5ccccc5)ncnc4c23)CO1` belongs 24 µM.
Regarding `O=C(Nc1ccc2c(c1)OCCO2)C1CCC(Cn2cnc3ccccc3c2=O)CC1` (stereo not given), the IC50 is > 40 µM (inactive).
Take `NS(=O)(=O)c1cccc(NC(=O)/C=C/c2cn(-c3ccccc3)nc2-c2cccc([N+](=O)[O-])c2)c1`: the IC50 is > 40 µM (inactive).
To `Cc1ccc(-c2cc(=O)n(CC(=O)Nc3ccc(C(C)C)cc3)cn2)cc1` belongs > 40 µM (inactive).
Under `Fc1cccc(Nc2nc(-c3ccccn3)nc3ccccc23)c1` stands > 40 µM (inactive).
To `Cc1ccc(-c2nn(C(C)(C)C)c3ncnc(NS(=O)(=O)c4ccc(Cl)cc4)c23)cc1` belongs > 40 µM (inactive); to `O=C(c1ccc2occc2c1)N1CCC(S(=O)(=O)c2ccc(-c3ccco3)cc2)CC1`, > 40 µM (inactive).
Consider `CC(C)NC(=O)Cn1ccn2nc(-c3ccc(Cl)cc3)cc2c1=O`, for which the IC50 was > 40 µM (inactive).
For `Cc1ccc(-n2nc(C)c3c2NC(=O)CC3C(=O)c2cc3ccccc3o2)cc1` (stereo not given), the IC50 is > 40 µM (inactive).
Under `Cc1[nH]c2ccc(F)cc2c(=O)c1CN1CCCCC1` stands > 40 µM (inactive); under `Oc1cccc2c(-c3ccc(O)c4c(O)cccc34)ccc(O)c12`, > 40 µM (inactive); under `COc1ccc(NS(=O)(=O)c2cc(NC(=O)/C=C/c3ccco3)ccc2N2CCCC2)cc1`, > 40 µM (inactive).
As for `O=c1cc(-c2ccc(O)c(O)c2)oc2cc(O)cc(O)c12`, the IC50 was 2.07 µM.
To `O=C(CCCCCn1c(=O)c2sccc2n(CC(=O)c2ccc(F)cc2)c1=O)NCc1ccccc1Cl` belongs > 40 µM (inactive); to `COc1cn(-c2ccc(F)cc2)nc1C(=O)Nc1ccc(Cl)cc1Cl`, 15.1 µM; to `COc1ccc(-c2cc3nc([C@H](C)NC(=O)Cc4cc(F)ccc4F)nn3cn2)cc1`, > 40 µM (inactive).
To `Nc1ccc2oc(-c3cccc(-c4nc5cc(N)ccc5o4)n3)nc2c1` belongs 32.9 µM; to `COc1ccccc1N1CCN(C(=O)c2ccc3c(=O)n(CCc4ccccc4)c(=O)[nH]c3c2)CC1`, > 40 µM (inactive); to `CCc1nnc(C(=O)Nc2ccc(C(=O)NCc3ccc(OC(C)C)cc3)cc2)s1`, > 40 µM (inactive).
As for `CNC(=O)c1c2n(c3ncccc13)CCN(S(=O)(=O)c1ccc(-c3ccccc3)cc1)C2`, the IC50 is > 40 µM (inactive).
In the case of `COc1cc(O)c2c(O)c3c(cc2c1)C[C@@]1(O)CC(=O)C(C(N)=O)=C(O)[C@@]1(O)C3=O`, the IC50 was 3.61 µM.
Under `O=c1c2ccccc2nc(/C=C/c2ccco2)n1Cc1ccccc1` stands > 40 µM (inactive); under `CCc1ccc(-n2cc(OC(C)=O)c3c2nc(C)n2c4ccccc4nc32)cc1`, > 40 µM (inactive); under `Cc1ccc(C(=O)NC(C)c2ccccc2)cc1NC(=O)c1nsc2ccccc12` (stereo not given), > 40 µM (inactive).
Turning to `Cc1ccc(C(=O)c2cn(CC(=O)Nc3ccccc3)c3ccccc3c2=O)cc1`, the IC50 is > 40 µM (inactive).
For the compound `C[C@H](NC(=O)Cc1ccccc1F)c1nc2cc(-c3ccccc3F)ncn2n1`, the IC50 is > 40 µM (inactive).
To `O=C(NCc1ccccc1Cl)C1CCN(c2ccc(-c3ccccc3)nn2)CC1` belongs > 40 µM (inactive); to `O=C(CCc1ccc(S(=O)(=O)N2CCOCC2)cc1)OCC(=O)c1ccc(-c2ccccc2)cc1`, > 40 µM (inactive); to `COc1ccc(C2NC(=O)NC(C)=C2C(=O)OCC2CCCCC2)cc1OC` (stereo not given), > 40 µM (inactive).
For `CC1CCc2c(sc(NC(=O)c3cccc(S(C)(=O)=O)c3)c2C(N)=O)C1` (stereo not given), the IC50 is > 40 µM (inactive).
Consider `COc1ccc(OC)c(NC(=O)Cn2c(=O)n(CC3CCC(C(=O)NCCc4ccccc4)CC3)c(=O)c3ccccc32)c1` (stereo not given), for which the IC50 is > 40 µM (inactive).
To `COc1c2nc3ccccc3oc-2cc(=O)c1OC` belongs > 40 µM (inactive); to `COc1cccc(CNc2ccc(-c3nc(-c4ccccc4)no3)nn2)c1`, > 40 µM (inactive); to `CC(=O)Nc1cccc(-c2cnc3sc(NC4CCCCC4)nn23)c1`, > 40 µM (inactive).
In the case of `COc1ccc(/C=C/C(=O)Nc2cccc(S(=O)(=O)Nc3ccccc3Cl)c2)c(OC)c1`, the IC50 is > 40 µM (inactive).
To `O=C1CC(C(=O)Nc2ccc3c(c2)OCO3)n2nc(SCc3ccccc3)nc2N1` (stereo not given) belongs > 40 µM (inactive); to `O=S1(=O)CCN(Cc2c(F)cccc2F)c2c(F)nc(N3CCOCC3)c(F)c21`, > 40 µM (inactive); to `CC(C)(C)C(=O)Nc1ccc(C(=O)Nc2cccc(-c3nnc(-c4ccccc4)o3)c2)cc1`, > 40 µM (inactive).
Regarding `O=C(OC1CSc2nc3ccccc3n2C1)c1ccc([N+](=O)[O-])o1` (stereo not given), the IC50 was 21.4 µM.
With `COc1ccc(-c2cc(-c3ccc(F)cc3)[nH]c(=O)c2C#N)cc1`, the IC50 was > 40 µM (inactive).
Take `O=C(c1cccnc1)N1CCN(c2cc(-c3ccccc3)[nH]n2)CC1`: the IC50 is > 40 µM (inactive).
On to `CCOC(=O)N1CCC(NC(=O)c2cc(C(=O)Nc3ccc(S(=O)(=O)N4CCCCC4)cc3)ccc2CO)CC1`, for which the IC50 is > 40 µM (inactive).
To `CC(NC(=O)c1ccccc1)c1nc2ccccc2n1CC(=O)Nc1ccc(OC(F)(F)F)cc1` (stereo not given) belongs > 40 µM (inactive); to `O=C(Nc1ccc(F)cc1)Nc1ccccc1OCc1cc(=O)n2ccccc2n1`, > 40 µM (inactive); to `Cc1ccc(-c2n[nH]n3c2nc(=O)c2ccc(C(=O)NC4CCCCC4)cc23)cc1`, > 40 µM (inactive).
To `O=C(Nc1cccc([N+](=O)[O-])c1)Nc1ccc2snnc2c1` belongs 14.8 µM; to `CCCCNC(=O)C1Sc2nnc(-c3ccccc3)n2NC1c1ccccc1` (stereo not given), > 40 µM (inactive).
Take `COCC(=O)N1CCC(n2c(C3CC3)nc3sc(C)c(C)c3c2=O)CC1`: the IC50 is > 40 µM (inactive).
To `O=C(Cn1c(=O)n(Cc2ccc(C(=O)NC3CCCC3)cc2)c(=O)c2ccccc21)c1ccc(Cl)c(Cl)c1` belongs > 40 µM (inactive); to `O=C(Nc1ccc(Cn2cnc(-c3nc(-c4ccccc4)no3)c2)cc1)c1ccccc1F`, > 40 µM (inactive).
For the compound `CNC(=O)Cc1ccc(NC(=O)/C=C/c2cn(-c3ccccc3)nc2-c2ccc(F)cc2)cc1`, the IC50 was > 40 µM (inactive).
Take `Cc1cccc(NC(=O)CSc2nc3c(cc2C#N)C(=O)CCC3)c1`: the IC50 was > 40 µM (inactive).
Under `CCOC(=O)c1cc2c(ccn2C)n1CC(=O)NC1CC1` stands > 40 µM (inactive).
